Each structure is given as a SMILES string.

T1 sequence (Q12879 23-1464, other chains not shown): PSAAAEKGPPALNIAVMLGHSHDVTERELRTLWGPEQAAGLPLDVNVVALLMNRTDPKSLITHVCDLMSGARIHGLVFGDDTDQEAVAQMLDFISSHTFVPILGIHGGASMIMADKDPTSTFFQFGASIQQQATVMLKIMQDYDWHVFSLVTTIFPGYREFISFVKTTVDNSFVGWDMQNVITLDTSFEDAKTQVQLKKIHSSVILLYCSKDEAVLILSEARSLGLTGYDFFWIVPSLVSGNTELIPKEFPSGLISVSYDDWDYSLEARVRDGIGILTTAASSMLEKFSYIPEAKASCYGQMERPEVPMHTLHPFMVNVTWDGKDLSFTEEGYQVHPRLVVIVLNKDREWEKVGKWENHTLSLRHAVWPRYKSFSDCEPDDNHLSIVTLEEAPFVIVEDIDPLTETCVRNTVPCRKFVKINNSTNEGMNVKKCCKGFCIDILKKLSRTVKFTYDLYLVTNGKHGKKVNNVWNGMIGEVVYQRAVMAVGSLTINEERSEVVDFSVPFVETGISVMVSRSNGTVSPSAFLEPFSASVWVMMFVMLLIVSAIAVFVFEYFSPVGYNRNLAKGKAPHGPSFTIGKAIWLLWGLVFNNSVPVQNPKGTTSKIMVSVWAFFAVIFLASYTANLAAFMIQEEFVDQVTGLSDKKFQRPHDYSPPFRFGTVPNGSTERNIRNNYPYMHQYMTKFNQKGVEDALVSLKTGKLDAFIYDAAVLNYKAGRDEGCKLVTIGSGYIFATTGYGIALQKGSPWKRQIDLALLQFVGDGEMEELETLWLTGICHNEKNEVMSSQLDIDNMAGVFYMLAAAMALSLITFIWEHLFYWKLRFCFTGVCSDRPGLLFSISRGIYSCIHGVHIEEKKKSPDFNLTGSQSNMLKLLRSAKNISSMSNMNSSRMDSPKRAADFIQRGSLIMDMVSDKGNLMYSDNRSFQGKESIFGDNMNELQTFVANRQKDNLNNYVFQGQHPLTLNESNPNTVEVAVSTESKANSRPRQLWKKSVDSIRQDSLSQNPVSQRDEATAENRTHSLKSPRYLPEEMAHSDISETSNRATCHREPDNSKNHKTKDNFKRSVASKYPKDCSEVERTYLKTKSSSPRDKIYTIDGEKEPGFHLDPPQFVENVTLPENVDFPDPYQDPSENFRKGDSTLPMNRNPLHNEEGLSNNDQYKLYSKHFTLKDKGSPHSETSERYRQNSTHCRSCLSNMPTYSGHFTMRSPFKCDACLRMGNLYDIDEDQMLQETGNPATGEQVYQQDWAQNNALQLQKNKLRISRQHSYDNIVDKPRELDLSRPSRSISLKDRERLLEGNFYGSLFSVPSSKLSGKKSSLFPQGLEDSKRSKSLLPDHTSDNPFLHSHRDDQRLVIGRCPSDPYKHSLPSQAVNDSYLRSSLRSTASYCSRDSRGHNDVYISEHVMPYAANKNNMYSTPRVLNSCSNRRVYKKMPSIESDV

One assay addresses T1, NMDA receptor (GRIN1/GRIN2A subunits) expressed in HEK cells (Homo sapiens, UniProt Q05586+Q12879).
T1 construct: expressed in transfected cells
Kind of assay: Whole-cell patch clamp of mammalian cells, NMDA potentiation. Type of assay: cell-based. The arrangement: key: “A” indicates >5 to 50%; B: >50%; C indicates not active in the assay. The following applies: 1 μM test article, 30 μM NMDA and 5.0 μM glycine, holding potential −80 mV. The method, then: NMDA potentiation was assessed using either whole cell patch clamp of mammalian cells which expressed NMDA receptors, or using two-electrode voltage clamp (TEVC) of Xenopus laevis oocytes expressing NMDA receptors.
The whole-cell patch-clamp technique was used to investigate the effects of compounds on the NMDA receptor (GRIN1/GRIN2A subunits) expressed in HEK cells. NMDA/Glycine peak and steady-state currents were recorded from stably transfected cells expressing the NMDA receptor and the modulatory effects of the test items on these currents were investigated.
Cells were stably transfected with human GRIN1 (variant NR1-3). These cells were transiently transfected (Lipofectamine™) with GRIN2A cDNA and CD8 (pLeu) antigene cDNA. About 24-72 hours following transfection 1 μl Dynabeads M-45 CD8 was added to identify successfully transfected cells (Jurman et al., Biotechniques (1994) 17:876-881). Cells were passaged to a confluence of 50-80%. Cells were seeded onto Poly-L-Lysine coated cover slips covered with culture complete medium in a 35 mm culture dish. Confluent clusters of cells are electrically coupled (Pritchett et al., Science (1988), 242:1306-8). Because responses in distant cells are not adequately voltage clamped and because of uncertainties about the extent of coupling (Verdoorn et al., Neuron (1990), 4:919-28), cells were cultivated at a density that enables single cells (without visible connections to neighboring cells) to be measured. Cells were incubated at 37° C. in a humidified atmosphere with 5% CO2 (rel. humidity about 95%). The cells were continuously maintained in and passaged in sterile culture flasks containing a 1:1 mixture of Dulbecco's modified eagle medium and nutrient mixture F-12 (D-MEM/F-12 1×, liquid, with L-Glutamine) supplemented with 9% fetal bovine serum and 0.9% Penicillin/Streptomycin solution. The complete medium was supplemented with 3.0 μg/ml Puromycin.
Whole cell currents were measured with HEKA EPC-10 amplifiers using PatchMaster software. Cell culture dishes for recordings were placed on the dish holder of the microscope and continuously perfused (1 ml/min) with “bath solution” (NaCl 137 mM, KCl 4 mM, CaCl2) 1.8 mM, MgCl2 1 mM, HEPES 10 mM, D-Glucose 10 mM, pH (NaOH) 7.4). All solutions applied to cells including the pipette solution were maintained at room temperature (19° C.-30° C.). After formation of a Gigaohm seal between the patch electrodes and transfected individual HEK 293 cells (pipette resistance range: 2.5 MΩ-6.0 MΩ; seal resistance range: >1 GQ) the cell membrane across the pipette tip was ruptured to assure electrical access to the cell interior (whole-cell patch-configuration). At this point the bath solution is switched to “NMDA bath solution” (NaCl 137 mM, KCl 4 mM, CaCl2) 2.8 mM, HEPES 10 mM, D-Glucose 10 mM, Cremophore 0.02%, pH (NaOH) 7.4). NMDA inward currents were measured upon application of 30 μM NMDA (and 5.0 μM Glycine) to patch-clamped cells (2 applications) for 5 s. The cells were voltage clamped at a holding potential of −80 mV. For the analysis of test articles, NMDA receptors were stimulated by 30 μM NMDA and 5.0 μM Glycine after sequential pre-incubation of increasing concentrations of the test article. Pre-incubation duration was 30 s. Stimulation duration was 5 s Test articles were dissolved in DMSO to form stock solutions of 0.1 mM and 1 mM. Test articles were diluted to 0.1 μM and 1 μM in “NMDA bath solution”. Both concentrations of test articles were tested on each cell. […]
Background: The patch-clamp technique gives a direct electrical read-out from membranes.
In the case of `C[C@H](CCC(C)(C)O)[C@H]1CC[C@H]2[C@@H]3CC=C4C[C@@H](O)CC[C@]4(CO)[C@H]3CC[C@]12C`, the “NMDA 1a2A (%) Potentiation 1 μM” value was “A (“A” indicates >5 to 50%)”.

Regarding `COC[C@]12CC[C@](C)(O)CC1=CC[C@@H]1[C@@H]2CC[C@]2(C)[C@@H]([C@H](C)CCCO)CC[C@@H]12`, the “NMDA 1a2A (%) Potentiation 1 μM” value is reported as “A (“A” indicates >5 to 50%)”.

Consider `COC[C@]12CC[C@](C)(O)C[C@@H]1CC[C@H]1[C@@H]3CC[C@H]([C@H](C)CCCO)[C@@]3(C)CC[C@@H]12`, for which the “NMDA 1a2A (%) Potentiation 1 μM” value was “C”.

Consider `COC[C@]12CC[C@](C)(O)CC1=CC[C@@H]1[C@@H]2CC[C@]2(C)[C@@H]([C@H](C)CCC(C)(C)O)CC[C@@H]12` [drawing 25], for which the “NMDA 1a2A (%) Potentiation 1 μM” value was “A (“A” indicates >5 to 50%)”.

Turning to `COC[C@]12CC[C@](C)(O)C[C@@H]1CC[C@H]1[C@@H]3CC[C@H]([C@H](C)CCC(C)(C)O)[C@@]3(C)CC[C@@H]12` [drawing 26], the “NMDA 1a2A (%) Potentiation 1 μM” value is “B (B: >50%)”.

The next assay deals with T2, NR1/NR2A glutamate receptors expressed in mammalian cells (Homo sapiens, UniProt Q05586+Q12879).
T2 construct: expressed in transfected cells
T2 sequence (Q12879 23-1464, other chains not shown): as above
In words: Whole-cell patch clamp of mammalian cells (IWB, Ion Works Barracuda). Type of assay: cell-based. The following applies: 3 μM test article, co-application with EC20 L-glutamate and 30 μM glycine. How it is done: The whole-cell patch-clamp technique was used to investigate the effects of compounds on NR1/NR2A glutamate receptors expressed in mammalian cells.
Test article effects were evaluated in 8-point concentration-response format (4 replicate wells/concentration). All test and control solutions contained 0.3% DMSO and 0.01% Kolliphor® EL (C5135, Sigma). The test article formulations were loaded in a 384-well compound plate using an automated liquid handling system (SciClone ALH3000, Caliper LifeScienses). The measurements were performed using Ion Works Barracuda platform following this procedure: Electrophysiological Procedures: • a) Intracellular solution (mM): 50 mM CsCl, 90 mM CsF, 2 mM MgCl2, 5 mM EGTA, 10 mM HEPES. Adjust to pH 7.2 with CsOH. • b) Extracellular solution, HB-PS (composition in mM): NaCl, 137; KCl, 1.0; CaCl2, 5; HEPES, 10; Glucose, 10; pH adjusted to 7.4 with NaOH (refrigerated until use). • c) Holding potential: −70 mV, potential during agonist/PAM application: −40 mV. Recording Procedure: • a) Extracellular buffer will be loaded into the PPC plate wells (11 μL per well). Cell suspension will be pipetted into the wells (9 μL per well) of the PPC planar electrode. • b) Whole-cell recording configuration will be established via patch perforation with membrane currents recorded by on-board patch clamp amplifiers. • c) Two recordings (scans) will be performed. First, during pre-application of PAM alone (duration of pre-application—5 min) and second, during test articles and agonist (EC20 L-glutamate and 30 μM glycine) co-application to detect positive modulatory effects of the test article.
Test Article Administration: The first pre-application will consist of the addition of 20 μL of 2× concentrated test article solution and, second, of 20 μL of 1× concentrated test article and agonist at 10 μL/s (2 second total application time).
Consider `COC[C@]12CC[C@](C)(O)C[C@@H]1CC[C@H]1[C@@H]3CC[C@H]([C@H](C)CCC(O)C(F)(F)F)[C@@]3(C)CC[C@@H]12` (stereo partly shown), for which the “GluN2A PCA IWB Ephys % potentiation at 3 μM” value is on record as “B (“B” indicates potentiation of >150%)”.

For the compound `COC[C@]12CC[C@](C)(O)CC1=CC[C@@H]1[C@@H]2CC[C@]2(C)[C@@H]([C@H](C)CCC(O)C(F)(F)F)CC[C@@H]12` (stereo partly shown), the “GluN2A PCA IWB Ephys % potentiation at 3 μM” value is listed as “A (“A” indicates 10 to 150%)”.

As for `CCC(O)(CC)CC[C@@H](C)[C@H]1CC[C@H]2[C@@H]3CC=C4C[C@@](C)(O)CC[C@]4(COC)[C@H]3CC[C@]12C`, the “GluN2A PCA IWB Ephys % potentiation at 3 μM” value is given as “A (“A” indicates 10 to 150%)”.

For `COC[C@]12CC[C@](C)(O)CC1=CC[C@@H]1[C@@H]2CC[C@]2(C)[C@@H]([C@H](C)CCC(C)(C)O)CC[C@@H]12` [drawing 28], the “GluN2A PCA IWB Ephys % potentiation at 3 μM” value is on record as “A (“A” indicates 10 to 150%)”.

On to `COC[C@]12CC[C@](C)(O)C[C@@H]1CC[C@H]1[C@@H]3CC[C@H]([C@H](C)CCC(C)(C)O)[C@@]3(C)CC[C@@H]12` [drawing 32], for which the “GluN2A PCA IWB Ephys % potentiation at 3 μM” value is “A (“A” indicates 10 to 150%)”.

Source of the values: patent publication US12129276B2, “Oxysterols and methods of use thereof” (SAGE THERAPEUTICS, INC., priority 2014, dated 2024).
